In publication PMC7228038 (Journal of medicinal chemistry, 2019):

Columns and labels:
[1] = Oxidative metabolic stability in murine microsomes; details: for CLint scaled at 0.8 µM: mouse, microsomes
[2] = target: DCN1-UBE2M interaction (Homo sapiens, UniProt Q96GG9); test: biochemical; type: binding; details: for Activity in TR-FRET binding assay, in words: maximum tested concentration 15 μM, values in Supplementary Tables
[3] = tested on: HCC95 cells; details: dose-response up to 30 μM, 5 hours
[4] = target: DCN2 (Homo sapiens, UniProt Q6PH85); test: Pulse-chase assay of NEDD8 transfer, DCN2 stimulated; type: biochemical; details: 10 μM; NEDD8 transfer from UBE2M to CUL2
[5] = target: T1, DCN5 (Homo sapiens, UniProt Q9BTE7); test: Pulse-chase assay of NEDD8 transfer, DCN5 stimulated; type: biochemical; details: 10 μM; NEDD8 transfer from UBE2M to CUL2
T1 sequence (Q9BTE7 1-237): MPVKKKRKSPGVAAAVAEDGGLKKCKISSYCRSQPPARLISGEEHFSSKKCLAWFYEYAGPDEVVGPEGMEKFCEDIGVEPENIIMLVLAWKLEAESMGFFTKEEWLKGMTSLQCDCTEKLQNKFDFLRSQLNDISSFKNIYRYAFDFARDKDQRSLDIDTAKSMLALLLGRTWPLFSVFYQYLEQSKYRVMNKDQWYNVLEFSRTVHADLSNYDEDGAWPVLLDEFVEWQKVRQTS

[6] = target: T2, DCN3 (Homo sapiens, UniProt Q8IWE4); test: Pulse-chase assay of NEDD8 transfer, DCN3 stimulated; type: biochemical; details: 10 μM; NEDD8 transfer from UBE2M to CUL2
T2 sequence (Q8IWE4 1-304): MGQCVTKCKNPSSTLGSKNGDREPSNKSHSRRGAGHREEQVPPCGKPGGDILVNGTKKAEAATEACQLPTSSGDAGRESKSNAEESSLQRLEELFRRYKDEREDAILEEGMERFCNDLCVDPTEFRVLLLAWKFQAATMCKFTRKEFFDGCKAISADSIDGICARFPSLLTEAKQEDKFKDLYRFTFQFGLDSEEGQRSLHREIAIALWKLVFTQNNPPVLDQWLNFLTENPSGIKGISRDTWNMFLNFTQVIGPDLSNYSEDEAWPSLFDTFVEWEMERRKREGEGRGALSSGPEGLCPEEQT

[7] = target: T3, DCN4 (Homo sapiens, UniProt Q92564); test: Pulse-chase assay of NEDD8 transfer, DCN4 stimulated; type: biochemical; details: 10 μM; NEDD8 transfer from UBE2M to CUL2
T3 sequence (Q92564 1-292): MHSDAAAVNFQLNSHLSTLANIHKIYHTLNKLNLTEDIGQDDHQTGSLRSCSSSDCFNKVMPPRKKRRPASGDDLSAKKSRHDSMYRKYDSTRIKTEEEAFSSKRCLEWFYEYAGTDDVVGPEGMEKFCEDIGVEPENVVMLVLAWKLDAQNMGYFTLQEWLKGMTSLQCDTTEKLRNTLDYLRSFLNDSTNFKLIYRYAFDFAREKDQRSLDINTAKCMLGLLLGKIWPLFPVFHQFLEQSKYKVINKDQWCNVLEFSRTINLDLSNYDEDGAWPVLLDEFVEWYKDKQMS

[8] = tested on: cullin neddylation in HCC95 cells; details: 10 μM (MLN4924 1 μM), 48 hours, most pronounced on CUL1 and CUL3
[9] = tested on: cullin neddylation in CAL33 cells; details: 10 μM (MLN4924 1 μM), 48 hours, most pronounced on CUL1 and CUL3

Sequence of DCN1-UBE2M interaction (Q96GG9 whole entry): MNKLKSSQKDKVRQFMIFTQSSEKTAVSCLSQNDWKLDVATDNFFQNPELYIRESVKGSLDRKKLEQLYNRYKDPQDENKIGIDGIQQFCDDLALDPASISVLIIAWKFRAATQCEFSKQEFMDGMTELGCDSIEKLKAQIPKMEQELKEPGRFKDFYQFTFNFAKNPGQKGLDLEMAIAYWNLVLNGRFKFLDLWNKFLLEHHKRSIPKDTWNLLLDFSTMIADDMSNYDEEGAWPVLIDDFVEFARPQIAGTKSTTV
Sequence of DCN2 (Q6PH85 whole entry): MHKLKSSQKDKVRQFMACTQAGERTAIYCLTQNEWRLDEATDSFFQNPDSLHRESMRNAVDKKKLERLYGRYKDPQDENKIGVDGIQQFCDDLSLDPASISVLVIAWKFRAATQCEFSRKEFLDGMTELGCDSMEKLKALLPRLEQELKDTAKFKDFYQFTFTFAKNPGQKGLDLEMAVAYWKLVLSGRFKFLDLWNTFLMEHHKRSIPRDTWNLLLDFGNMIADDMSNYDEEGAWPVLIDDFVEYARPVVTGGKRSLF

Cc1cccc(C(=O)N[C@@H]2C(=O)Nc3c(c(C)nn3-c3ccccc3)[C@@H]2c2ccc(F)cc2)c1 (racemic) [Compound 3]
CLint scaled at 0.8 µM [1]: 50.3 ± 5 mL/min/kg | Murine microsomal stability compared with that previously reported for NAcM-OPT ([1]; murine microsomes, relative to NAcM-OPT): ≤ 2 fold

Cc1cccc(C(=O)N[C@@H]2C(=O)Nc3c(c(C)nn3C3CCCC3)[C@@H]2c2ccc(F)cc2)c1 (racemic) [Compound 24]
CLint scaled at 0.8 µM [1]: 116 ± 10.7 mL/min/kg

CCn1nc(C)c2c1NC(=O)[C@@H](NC(=O)c1cccc(C)c1)[C@H]2c1ccc(F)cc1 (racemic) [Compound 65]
Activity in TR-FRET binding assay, in words [2]: roughly equipotent to the phenyl derivative (3) | CLint scaled at 0.8 µM [1]: 89.7 ± 4.7 mL/min/kg

Cc1cccc(C(=O)N[C@H]2C(=O)Nc3c(c(C)nn3-c3ccccc3)[C@@H]2c2ccc(F)cc2)c1 (racemic) [Compound 87, N-((4S,5R)-4-(4-fluorophenyl)-3-methyl-6-oxo-1-phenyl-4,5,6,7-tetrahydro-1H-pyrazolo[3,4-b]pyridin-5-yl)-3-methylbenzamide]
Effect on reactive oxygen species (DCFDA) [3]: neither 27, 87, nor NAcM-OPT have any measurable effects on reactive oxygen species | Activity in TR-FRET binding assay, in words [2]: inactive

Cc1ccc([C@H]2c3c(C)nn(-c4ccccc4)c3NC(=O)[C@H]2NC(=O)c2cccc(C)c2)cc1 (relative stereo) [Compound 1, 3-methyl-N-(rel-(4S,5S)-3-methyl-6-oxo-1-phenyl-4-(p-tolyl)-4,5,6,7-tetrahydro-1H-pyrazolo[3,4-b]pyridin-5-yl)benzamide]
CLint scaled at 0.8 µM [1]: 160 ± 5 mL/min/kg

CCN1C(=O)[C@@H](NC(=O)c2cccc(C)c2)[C@@H](c2ccc(F)cc2)c2c(C)nn(-c3ccccc3)c21 (relative stereo) [Compound 27, N-(rel-(4S,5S)-7-ethyl-4-(4-fluorophenyl)-3-methyl-6-oxo-1-phenyl-4,5,6,7-tetrahydro-1H-pyrazolo[3,4-b]pyridin-5-yl)-3-methylbenzamide]
Inhibition of DCN2 stimulated cullin neddylation (pulse-chase) [4]: inhibiting | CLint scaled at 0.8 µM [1]: 44.9 ± 3.7 mL/min/kg | Inhibition of DCN5 stimulated cullin neddylation (pulse-chase) [5]: not inhibited | Inhibition of DCN3 stimulated cullin neddylation (pulse-chase) [6]: not inhibited | Inhibition of DCN4 stimulated cullin neddylation (pulse-chase) [7]: not inhibited

Cc1nn(-c2ccccc2)c2c1[C@H](c1ccc(F)cc1)[C@H](NC(=O)c1cccc(C(F)(F)F)c1)C(=O)N2 [Compound 11]
IC50 [2]: 3.5 ± 0.5 µM

Cc1cccc(NC(=O)[C@@H]2C(=O)Nc3c(c(C)nn3-c3ccccc3)[C@@H]2c2ccc(F)cc2)c1 [Compound 128]
Activity in TR-FRET binding assay, in words [2]: not tolerated

Cc1nn(-c2ccccc2)c2c1[C@H](c1ccc(F)cc1)[C@H](C(=O)Nc1ccc(Cl)c(Cl)c1)C(=O)N2 [Compound 131]
Activity in TR-FRET binding assay, in words [2]: not tolerated

NS(=O)(=O)OC[C@@H]1C[C@@H](n2ccc3c(N[C@H]4CCc5ccccc54)ncnc32)C[C@@H]1O [MLN4924]
Inhibition of steady-state cullin neddylation (immunoblot), HCC95 [8]: complete blockade of neddylation | Inhibition of steady-state cullin neddylation (immunoblot), CAL33 [9]: complete blockade of neddylation

CCCCN1CCC(N(Cc2ccccc2)C(=O)Nc2ccc(Cl)c(Cl)c2)CC1 [NAcM-OPT, reference compound]
Effect on reactive oxygen species (DCFDA) [3]: neither 27, 87, nor NAcM-OPT have any measurable effects on reactive oxygen species
